Reference: PubChem BioAssay AID449736 (Sanford-Burnham Center for Chemical Genomics, 2010)

Target: Tyrosine-protein phosphatase non-receptor type 7 (Homo sapiens) (UniProt P35236)
Assay: inhibition of hematopoietic tyrosine phosphatase HePTP – biochemical, set 2, SAR follow-up (AID 449736)
Details: recombinant HePTP phosphatase activity

Sequence of Tyrosine-protein phosphatase non-receptor type 7 (Homo sapiens) (P35236 whole entry, looked up): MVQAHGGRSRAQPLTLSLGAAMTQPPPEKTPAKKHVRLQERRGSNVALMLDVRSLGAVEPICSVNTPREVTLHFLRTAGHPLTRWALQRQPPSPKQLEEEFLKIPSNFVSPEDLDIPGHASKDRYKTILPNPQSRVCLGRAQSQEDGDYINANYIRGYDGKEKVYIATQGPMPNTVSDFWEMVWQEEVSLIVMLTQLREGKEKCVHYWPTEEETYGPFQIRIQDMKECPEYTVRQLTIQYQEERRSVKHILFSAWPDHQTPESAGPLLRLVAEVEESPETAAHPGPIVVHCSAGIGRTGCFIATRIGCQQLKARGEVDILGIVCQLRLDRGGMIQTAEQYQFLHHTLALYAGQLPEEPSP

IC50: 3.61 µM
Compound: COc1cc(/C=C2\SC(=O)N(CC(=O)Nc3cccc(C)c3)C2=O)cc(Cl)c1OCC(=O)O
